Like-named read-outs stand apart in the source and are kept apart here. Where a SMILES comes first, the peptide text is derived from it. [ ]: non-standard residue; d: D form.
Molecular target: T1, PSD-95-PDZ2 (Homo sapiens, UniProt P78352)
T1 construct: 7xHis (N); made in house; host or cells: Escherichia coli B21 pLys (for the mutants, 'as previously described')
Experiment: Fluorescence polarization (FP) competition assay against cyclic nNOS TAMRA probe
Format: binding
Details: for Ki: cyclic nNOS TAMRA probe, mean of triplicates, N.B. = not binding; for fold improved binding affinity: N-methylation; for Relative Ki (Ki mut/Ki WT): FP inhibition constant normalized to WT value

T1 sequence (P78352 160-246 limits assumed): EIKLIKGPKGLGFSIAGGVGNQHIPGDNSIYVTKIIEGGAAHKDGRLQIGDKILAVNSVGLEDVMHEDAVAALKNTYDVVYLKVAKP

Row | Ki (FP competition) | Ki (FP competition, read-out: Ki) [nM] | Relative Ki (Ki mut/Ki WT) | Molecule | also measured
1 | N.B. | – | – | 80 (THLEXTFTGDGTPKTIRVTQPGQ; cyclized peptide; (5)..(5) X is AlloT; (21)..(21) is D-AA) [compound 80] | –
2 | N.B. | – | – | 85 (TXLETTFTGDGTPKTIRVTQPGQ; cyclized peptide; (2)..(2) X is N-Me-H; (21)..(21) is D-AA) [compound 85] | –
3 | N.B. | – | – | 87 (THLXTTFTGDGTPKTIRVTQPGQ; cyclized peptide; (4)..(4) X is N-Me-E; (21)..(21) is D-AA) [compound 87] | –
4 | N.B. | – | – | 90 (THLETTXTGDGTPKTIRVTQPGQ; cyclized peptide; (7)..(7) X is N-Me-F; (21)..(21) is D-AA) [compound 90] | –
5 | N.B. | – | – | 105 (THLETXFTGDGTPKTIRVTQPGQ; cyclized peptide; (6)..(6) X is pT; (21)..(21) is D-AA) [compound 105] | –
6 | – | 500 ± 100 | – | CC[C@H](C)[C@@H]1NC(=O)[C@H]([C@@H](C)O)NC(=O)[C@H](CCCCN)N(C)C(=O)[C@@H]2CCCN2C(=O)[C@H]([C@@H](C)O)NC(=O)CNC(=O)[C@H](CC(=O)O)NC(=O)CNC(=O)[C@H]([C@@H](C)O)NC(=O)[C@H](Cc2ccccc2)NC(=O)[C@H]([C@@H](C)O)NC(=O)[C@H]([C@@H](C)O)NC(=O)[C@H](CCC(=O)O)NC(=O)[C@H](CC(C)C)NC(=O)[C@H](Cc2c[nH]cn2)NC(=O)[C@H]([C@@H](C)O)NC(=O)[C@H](CCC(N)=O)NC(=O)CNC(=O)[C@H]2CCCN2C(=O)[C@H](CCC(N)=O)NC(=O)[C@H]([C@@H](C)O)NC(=O)[C@H](C(C)C)NC(=O)[C@H](CCCNC(=N)N)NC1=O [SEQ ID NO: 96] | fold improved binding affinity (FP competition): 2 fold
7 | – | 950 | 0.63 | CC[C@H](C)[C@@H]1NC(=O)[C@H]([C@@H](C)O)NC(=O)[C@H](CCCCN)NC(=O)[C@@H]2CCCN2C(=O)[C@H]([C@@H](C)O)NC(=O)CNC(=O)[C@H](CC(=O)O)NC(=O)CNC(=O)[C@H](CC(=O)O)NC(=O)[C@H](Cc2ccccc2)NC(=O)[C@H]([C@@H](C)O)NC(=O)[C@H]([C@@H](C)O)NC(=O)[C@H](CCC(=O)O)NC(=O)[C@H](CC(C)C)NC(=O)[C@H](Cc2c[nH]cn2)NC(=O)[C@H]([C@@H](C)O)NC(=O)[C@H](CCC(N)=O)NC(=O)CNC(=O)[C@H]2CCCN2C(=O)[C@H](CCC(N)=O)NC(=O)[C@H]([C@@H](C)O)NC(=O)[C@H](C(C)C)NC(=O)[C@H](CCCNC(=N)N)NC1=O [compound 19] (cyclo(THLETTFDGDGTPKTIRVTQ[dP]GQ)) | –
8 | – | 6190 | 4.13 | CC[C@H](C)[C@@H]1NC(=O)[C@H]([C@@H](C)O)NC(=O)[C@H](CCCCN)NC(=O)[C@@H]2CCCN2C(=O)[C@H]([C@@H](C)O)NC(=O)CNC(=O)[C@H](CC(=O)O)NC(=O)CNC(=O)[C@H]([C@@H](C)O)NC(=O)[C@H](Cc2ccccc2)NC(=O)[C@H]([C@@H](C)O)NC(=O)[C@H]([C@@H](C)O)NC(=O)[C@H](CCC(=O)O)NC(=O)[C@H](CC(C)C)NC(=O)[C@H](CCC(=O)O)NC(=O)[C@H]([C@@H](C)O)NC(=O)[C@H](CCC(N)=O)NC(=O)CNC(=O)[C@H]2CCCN2C(=O)[C@H](CCC(N)=O)NC(=O)[C@H]([C@@H](C)O)NC(=O)[C@H](C(C)C)NC(=O)[C@H](CCCNC(=N)N)NC1=O [compound 23] (cyclo(TELETTFTGDGTPKTIRVTQ[dP]GQ)) | –
9 | – | – | 3.00 | CC[C@H](C)[C@@H]1NC(=O)[C@H]([C@@H](C)O)NC(=O)[C@H](CCCCN)NC(=O)[C@@H]2CCCN2C(=O)[C@H]([C@@H](C)O)NC(=O)CNC(=O)[C@H](CC(=O)O)NC(=O)CNC(=O)[C@H]([C@@H](C)O)NC(=O)[C@H](Cc2ccccc2)NC(=O)[C@H]([C@@H](C)O)NC(=O)[C@H]([C@@H](C)O)NC(=O)[C@H](CCC(=O)O)NC(=O)[C@H](CC(C)C)NC(=O)[C@H](Cc2c[nH]cn2)NC(=O)CNC(=O)[C@H](CCC(N)=O)NC(=O)CNC(=O)[C@H]2CCCN2C(=O)[C@H](CCC(N)=O)NC(=O)[C@H]([C@@H](C)O)NC(=O)[C@H](C(C)C)NC(=O)[C@H](CCCNC(=N)N)NC1=O [compound 25] (cyclo(GHLETTFTGDGTPKTIRVTQ[dP]GQ)) | –

Second part, the molecule before the results:

Row | Molecule | Ki (FP competition) | Ki (FP competition, read-out: Ki) [nM] | Relative Ki (Ki mut/Ki WT) | also measured
10 | 86 (THXETTFTGDGTPKTIRVTQPGQ; cyclized peptide; (3)..(3) X is N-Me-L; (21)..(21) is D-AA) [compound 86] | N.B. | – | – | –
11 | 104 (THLEXTFTGDGTPKTIRVTQPGQ; cyclized peptide; (5)..(5) X is pT; (21)..(21) is D-AA) [compound 104] | N.B. | – | – | –
12 | 108 (THLETTFTGDGTPKXIRVTQPGQ; cyclized peptide; (15)..(15) X is pT; (21)..(21) is D-AA) [compound 108] | N.B. | – | – | –
13 | CC[C@H](C)[C@@H]1NC(=O)[C@H]([C@@H](C)O)NC(=O)[C@H](CCCCN)NC(=O)[C@@H]2CCCN2C(=O)[C@H]([C@@H](C)O)NC(=O)CNC(=O)[C@H](CC(=O)O)NC(=O)CNC(=O)[C@H]([C@@H](C)O)NC(=O)[C@H](Cc2ccccc2)NC(=O)[C@H]([C@@H](C)O)NC(=O)[C@H]([C@@H](C)O)NC(=O)[C@H](CCC(=O)O)NC(=O)[C@H](CC(C)C)NC(=O)[C@H](Cc2c[nH]cn2)NC(=O)[C@H]([C@@H](C)O)N(C)C(=O)[C@H](CCC(N)=O)NC(=O)CNC(=O)[C@H]2CCCN2C(=O)[C@H](CCC(N)=O)NC(=O)[C@H]([C@@H](C)O)NC(=O)[C@H](C(C)C)NC(=O)[C@H](CCCNC(=N)N)NC1=O [SEQ ID NO: 84] | – | – | – | fold lowered (decreased) binding affinity of the cyclic peptide (FP competition, relative to unsubstituted cyclic peptide): 5 fold
14 | CC[C@H](C)[C@@H]1NC(=O)[C@H]([C@@H](C)O)NC(=O)[C@H](CCCCN)NC(=O)[C@@H]2CCCN2C(=O)[C@H]([C@@H](C)O)NC(=O)CNC(=O)[C@H](CC(=O)O)NC(=O)CNC(=O)[C@H]([C@@H](C)O)NC(=O)[C@H](Cc2ccccc2)NC(=O)[C@H]([C@@H](C)O)NC(=O)[C@H]([C@@H](C)O)NC(=O)[C@H](CCC(=O)O)NC(=O)[C@H](CC(C)C)NC(=O)[C@H](Cc2c[nH]cn2)NC(=O)[C@H]([C@@H](C)O)NC(=O)[C@H](CCC(N)=O)NC(=O)CNC(=O)[C@H]2CCCN2C(=O)[C@H](CCC(N)=O)NC(=O)[C@H]([C@@H](C)O)N(C)C(=O)[C@H](C(C)C)NC(=O)[C@H](CCCNC(=N)N)NC1=O [SEQ ID NO: 101] | – | 600 ± 100 | – | fold improved binding affinity (FP competition): 2 fold
15 | CC[C@H](C)[C@@H]1NC(=O)[C@H]([C@@H](C)O)NC(=O)[C@H](CCCCN)NC(=O)[C@@H]2CCCN2C(=O)[C@H]([C@@H](C)O)NC(=O)CNC(=O)[C@H](CC(=O)O)NC(=O)CNC(=O)[C@H]([C@@H](C)O)NC(=O)[C@H](Cc2ccccc2)NC(=O)[C@H]([C@@H](C)O)NC(=O)[C@H]([C@@H](C)O)NC(=O)[C@H](CCC(=O)O)NC(=O)[C@H](CC(C)C)NC(=O)[C@H](Cc2c[nH]cn2)NC(=O)[C@H]([C@@H](C)O)NC(=O)[C@H](CCC(N)=O)NC(=O)CNC(=O)[C@H]2CCCN2C(=O)[C@H](CCC(N)=O)NC(=O)[C@H]([C@@H](C)O)NC(=O)[C@H](C(C)C)NC(=O)[C@H](CCCNC(=N)N)NC1=O [SEQ ID NO: 433] | – | 1500 ± 200 | – | –
16 | CC[C@H](C)[C@@H]1NC(=O)[C@H]([C@@H](C)O)NC(=O)[C@H](CCCCN)NC(=O)[C@@H]2CCCN2C(=O)[C@H]([C@@H](C)O)NC(=O)CNC(=O)[C@H](CC(=O)O)NC(=O)CNC(=O)[C@H](Cc2c[nH]c3ccccc23)NC(=O)[C@H](Cc2ccccc2)NC(=O)[C@H]([C@@H](C)O)NC(=O)[C@H]([C@@H](C)O)NC(=O)[C@H](CCC(=O)O)NC(=O)[C@H](CC(C)C)NC(=O)[C@H](Cc2c[nH]cn2)NC(=O)[C@H]([C@@H](C)O)NC(=O)[C@H](CCC(N)=O)NC(=O)CNC(=O)[C@H]2CCCN2C(=O)[C@H](CCC(N)=O)NC(=O)[C@H]([C@@H](C)O)NC(=O)[C@H](C(C)C)NC(=O)[C@H](CCCNC(=N)N)NC1=O [compound 18] (cyclo(THLETTFWGDGTPKTIRVTQ[dP]GQ)) | – | 720 | 0.48 | –
17 | CC[C@H](C)[C@@H]1NC(=O)[C@H]([C@@H](C)O)NC(=O)[C@H](CCCCN)NC(=O)[C@@H]2CCCN2C(=O)[C@H]([C@@H](C)O)NC(=O)CNC(=O)[C@H](CC(=O)O)NC(=O)CNC(=O)[C@H]([C@@H](C)O)NC(=O)[C@H](Cc2ccccc2)NC(=O)[C@H]([C@@H](C)O)NC(=O)[C@H]([C@@H](C)O)NC(=O)[C@H](CCC(=O)O)NC(=O)[C@H](CCCCN)NC(=O)[C@H](Cc2c[nH]cn2)NC(=O)[C@H]([C@@H](C)O)NC(=O)[C@H](CCC(N)=O)NC(=O)CNC(=O)[C@H]2CCCN2C(=O)[C@H](CCC(N)=O)NC(=O)[C@H]([C@@H](C)O)NC(=O)[C@H](C(C)C)NC(=O)[C@H](CCCNC(=N)N)NC1=O [compound 22] (cyclo(THKETTFTGDGTPKTIRVTQ[dP]GQ)) | – | – | 0.80 | –
18 | CC[C@H](C)[C@@H]1NC(=O)[C@H]([C@@H](C)O)NC(=O)[C@H](CCCCN)NC(=O)[C@@H]2CCCN2C(=O)[C@H]([C@@H](C)O)NC(=O)CNC(=O)[C@H](CC(=O)O)NC(=O)CNC(=O)[C@H]([C@@H](C)O)NC(=O)[C@H](Cc2ccccc2)NC(=O)[C@H]([C@@H](C)O)NC(=O)[C@H]([C@@H](C)O)NC(=O)[C@H](CCC(=O)O)NC(=O)[C@H](CC(C)C)NC(=O)[C@H](Cc2ccc(O)cc2)NC(=O)[C@H]([C@@H](C)O)NC(=O)[C@H](CCC(N)=O)NC(=O)CNC(=O)[C@H]2CCCN2C(=O)[C@H](CCC(N)=O)NC(=O)[C@H]([C@@H](C)O)NC(=O)[C@H](C(C)C)NC(=O)[C@H](CCCNC(=N)N)NC1=O [compound 26] (cyclo(TYLETTFTGDGTPKTIRVTQ[dP]GQ)) | – | – | 0.79 | –
19 | CC[C@H](C)[C@@H]1NC(=O)[C@H]([C@@H](C)O)NC(=O)[C@H](CCCCN)NC(=O)[C@@H]2CCCN2C(=O)[C@H]([C@@H](C)O)NC(=O)CNC(=O)[C@H](CC(=O)O)NC(=O)CNC(=O)[C@H]([C@@H](C)O)NC(=O)[C@H](Cc2ccccc2)NC(=O)[C@H]([C@@H](C)O)NC(=O)[C@H]([C@@H](C)O)NC(=O)[C@H](CCC(=O)O)NC(=O)[C@H](CC(C)C)NC(=O)[C@H](Cc2ccccc2)NC(=O)[C@H]([C@@H](C)O)NC(=O)[C@H](CCC(N)=O)NC(=O)CNC(=O)[C@H]2CCCN2C(=O)[C@H](CCC(N)=O)NC(=O)[C@H]([C@@H](C)O)NC(=O)[C@H](C(C)C)NC(=O)[C@H](CCCNC(=N)N)NC1=O [compound 27] (cyclo(TFLETTFTGDGTPKTIRVTQ[dP]GQ)) | – | – | 0.79 | –
